Laboratory results as given in article PMC9127750, “Structure-based design of CDC42 effector interaction inhibitors for the treatment of cancer” (Cell reports, 2022).
“And” between values parts separate entries of the source, which are not always exact repeats. Equal entries are not always repeated.

Test system: WM3248 melanoma cells, 486 antibodies
Assay: Reverse phase protein arrays (RPPA)
Type: cell-based, Human
Source text: Pellets were snap frozen in liquid nitrogen and shipped to MD Anderson Cancer Center core RPPA facility for RPPA analysis (Table S5). Three biological replicates for each sample were generated.
Nomenclatures on the RPPA heatmaps: name_of_antibody.species_of_antibody.status_of_antibody. V - antibody validated; C - validation of antibody in progress; Q - antibody nonspecific; E – under evaluation; antibodies raised in M - mouse, G - goat, R - rabbit, or T - rat.

[1] = Norm_20, replicates 1-3 and Average, relative to Norm_0

For `CN(C)c1cccc(Nc2cc(-c3ccccc3)nc(C3CCNCC3)n2)c1` [ARN22089, N1,N1-dimethyl-N3-(6-phenyl-2-(piperidin-4-yl)pyrimidin-4-yl)benzene-1,3-diamine], the “Bax.R.V RPPA signal, normalized” value [1] was 1.116 and 1.001 and 1.099, the “Bcl2.R.C RPPA signal, normalized” value [1] was 1.192 and 1.263 and 1.147 and 1.201 and the “Bcl.xL.R.V RPPA signal, normalized” value [1] was 1.010 and 1.055 and 1.349 and 1.138. The “Beclin.R.C RPPA signal, normalized” value [1] was 0.940 and 1.021 and 1.001, the “BiP.GRP78.M.C RPPA signal, normalized” value [1] was 0.957 and 0.997 and 0.968 and the “Bid.R.C RPPA signal, normalized” value [1] was 1.024 and 0.874 and 0.875 and 0.925. The “Bim.R.V RPPA signal, normalized” value [1] was 1.050 and 0.910 and 0.906 and 0.955, the “X4E.BP1.R.V RPPA signal, normalized” value [1] was 0.857 and 0.934 and 2.342 and 1.377 and the “X4E.BP1_pS65.R.V RPPA signal, normalized” value [1] was 0.791 and 0.833 and 1.063 and 0.895. The “X4E.BP1_pT37_T46.R.V RPPA signal, normalized” value [1] was 0.867 and 0.753 and 1.126 and 0.915, the “X14.3.3.zeta.R.V RPPA signal, normalized” value [1] was 0.941 and 0.920 and 0.970 and 0.944 and the “X14.3.3βR.V RPPA signal, normalized” value [1] was 1.101 and 1.160 and 0.888 and 1.050. For the same compound, the “X14.3.3εM.C RPPA signal, normalized” value [1] was 0.855 and 0.892 and 1.081 and 0.943, the “X53BP1.R.V RPPA signal, normalized” value [1] was 1.138 and 0.986 and 1.047 and 1.057 and the “b.Actin.R.C RPPA signal, normalized” value [1] was 1.058 and 1.299 and 1.110 and 1.155. For the same compound, the “b.Catenin.R.V RPPA signal, normalized” value [1] was 0.975 and 0.858 and 1.031 and 0.954, the “b.Catenin_pT41_S45.R.V RPPA signal, normalized” value [1] was 1.047 and 1.076 and the “c.Abl.R.V RPPA signal, normalized” value [1] was 1.061 and 1.026 and 1.186. The “c.Abl_pY412.R.C RPPA signal, normalized” value [1] was 1.034 and 0.935 and 1.009 and 0.993, the “c.IAP2.R.C RPPA signal, normalized” value [1] was 1.049 and 1.145 and 1.104 and 1.100 and the C.Raf.R.C normalized signal (Norm_20 Average) was 0.952. It also gave a CA9.R.C normalized signal (Norm_20 Average) of 0.890, a CD2.M.C normalized signal (Norm_20 Average) of 0.871 and a CD4.R.V normalized signal (Norm_20 Average) of 1.005. It also gave a CD5.M.C normalized signal (Norm_20 Average) of 0.944, a CD20.R.C normalized signal (Norm_20 Average) of 1.356 and a CD26.R.V normalized signal (Norm_20 Average) of 1.108. It also gave a CD29.M.V normalized signal (Norm_20 Average) of 0.892, a CD31.M.V normalized signal (Norm_20 Average) of 0.916 and a CD44.R.C normalized signal (Norm_20 Average) of 1.001. For the same compound, the CD45.M.V normalized signal (Norm_20 Average) was 0.902, the CD49b.M.V normalized signal (Norm_20 Average) was 1.012 and the CD68.M.C normalized signal (Norm_20 Average) was 0.968. For the same compound, the CD74.M.V normalized signal (Norm_20 Average) was 0.926, the CD134.R.V normalized signal (Norm_20 Average) was 0.946 and the CD171.M.V normalized signal (Norm_20 Average) was 0.712. For the same compound, the CDK1_pT14.R.C normalized signal (Norm_20 Average) was 1.008, the CDK9.R.V normalized signal (Norm_20 Average) was 0.932 and the CDKN2A.R.C normalized signal (Norm_20 Average) was 0.921. The CDT1.R.V normalized signal (Norm_20 Average) was 0.857, the CENP.A.R.V normalized signal (Norm_20 Average) was 1.525 and the CRABP1.R.C normalized signal (Norm_20 Average) was 0.968. It also gave a CRABP2.R.V normalized signal (Norm_20 Average) of 0.841, a CREB_pS133.R.C normalized signal (Norm_20 Average) of 1.190 and a CSK.R.C normalized signal (Norm_20 Average) of 0.923. It also gave a Calnexin.R.V normalized signal (Norm_20 Average) of 0.926, a Caspase.3.cleaved.R.C normalized signal (Norm_20 Average) of 1.013 and a Caspase.7.cleaved..R.C normalized signal (Norm_20 Average) of 1.013. It also gave a Caspase.8.M.Q normalized signal (Norm_20 Average) of 0.961, a Caspase.8.cleaved.R.C normalized signal (Norm_20 Average) of 0.957 and a Caveolin.1.R.V normalized signal (Norm_20 Average) of 0.866. The Cdc6.R.V normalized signal (Norm_20 Average) was 0.851, the Cdc42.R.C normalized signal (Norm_20 Average) was 0.996 and the Chk1.M.C normalized signal (Norm_20 Average) was 0.786. The Chk1_pS345.R.C normalized signal (Norm_20 Average) was 1.170, the Chk2.M.V normalized signal (Norm_20 Average) was 0.875 and the Chk2_pT68.R.C normalized signal (Norm_20 Average) was 1.128. The Claudin.7.R.V normalized signal (Norm_20 Average) was 1.226, the Collagen.VI.R.V normalized signal (Norm_20 Average) was 1.013 and the Complex.II.Subunit.M.V normalized signal (Norm_20 Average) was 1.002. The Coup.TFII.R.C normalized signal (Norm_20 Average) was 1.005, the Cox2.R.C normalized signal (Norm_20 Average) was 1.349 and the Cox.IV.R.V normalized signal (Norm_20 Average) was 0.992. For the same compound, the Creb.R.C normalized signal (Norm_20 Average) was 1.053, the CtIP.R.V normalized signal (Norm_20 Average) was 0.962 and the Cyclin.B1.R.V normalized signal (Norm_20 Average) was 0.968. It also gave a Cyclin.D1.R.C normalized signal (Norm_20 Average) of 0.986, a Cyclin.D3.M.V normalized signal (Norm_20 Average) of 0.749 and a Cyclin.E1.R.V normalized signal (Norm_20 Average) of 0.902. The Cyclophilin.F.M.V normalized signal (Norm_20 Average) was 0.934, the D.a.Tubulin.R.V normalized signal (Norm_20 Average) was 0.990 and the DAPK1_pS308.M.C normalized signal (Norm_20 Average) was 2.076. The DAPK2.R.C normalized signal (Norm_20 Average) was 1.013, the DDB.1.R.V normalized signal (Norm_20 Average) was 0.922 and the DDR1.R.V normalized signal (Norm_20 Average) was 0.996. For the same compound, the DDR1_pY513.R.C normalized signal (Norm_20 Average) was 1.082, the DJ1.R.V normalized signal (Norm_20 Average) was 0.929 and the DM.Histone.H3.R.V normalized signal (Norm_20 Average) was 1.963. It also gave a DM.K9.Histone.H3.M.V normalized signal (Norm_20 Average) of 1.372, a DNA.Ligase.IV.R.C normalized signal (Norm_20 Average) of 0.924 and a DNA_POLG.R.V normalized signal (Norm_20 Average) of 1.084.
